The source of these data is a melting point compilation (Tetko et al.; mined from patent text by program, amines drawn as free bases though some values may be those of a salt).

What is called melting point is the temperature, or range, at which the solid turns liquid.

Compound `CC(O)(c1nc2ccc([N+](=O)[O-])cc2[nH]1)C(F)(F)F` (stereo not given) came in with a melting point of 73 to 75 °C.

`CCC(=NC#N)N(C)C(C)c1ccc(Cl)cc1Cl` (stereo not given): the melting point was determined as 148 °C.

The compound `O=C(CNCCO)Nc1cccc([N+](=O)[O-])c1` registered a melting point of 145 to 147 °C.

The compound `CCOC(=O)COC(=O)c1cccnc1C#N` registered a melting point of 74 °C.

In turn, `COc1cc(-c2nccn2N=Cc2ccc(N(C)C)cc2)cc(OC)c1OC` registered a melting point of 232 °C.

Take `Cc1ncoc1C(C)(N)c1ccoc1` (stereo not given): the melting point was 82.5 to 83.5 °C.

`Cn1cc(-c2ccc(C(=O)N3Cc4cccn4Cc4ccccc43)cn2)cn1` showed a melting point of 173 to 175 °C.

In the case of `CCN(CC)C1CCN(c2ccc(-c3[nH]nc4c3C(=O)c3c(NC(=O)NN5CCOCC5)cccc3-4)cc2)CC1`, the melting point stood at 251 °C.

Turning to `O=C(O)c1ccc(-c2ccc(OCc3ccccc3)cc2)cc1`, the melting point was more than 300 °C.

In turn, `Cc1ccc(C(=O)N2CCC3(CC2)OCCO3)cc1` registered a melting point of 59 to 61 °C.

As for `O=C(N[C@H]1CC(=O)N(c2cc(Cc3n[nH]c(=O)c4ccccc34)ccc2F)C1=O)OCc1ccccc1`, the melting point was 121 to 127 °C.

`O=C(O)C1=Cc2cc(Cl)cc(F)c2OC1C(F)(F)F` (stereo not given) registered a melting point of 191 to 193 °C.

For `COc1ccc(COCc2nc(C(C)C)c(Sc3cc(Cl)cc(Cl)c3)n2C(C)C)cc1`, the melting point was in the range of 136 to 137 °C.

For the compound `C=C1c2c(C)cccc2NC(=O)N1CC(=O)OCC`, the melting point is 151 to 154 °C.

Compound `CCCC1(CCC)CCC2(CC1)CC(=O)N(CCC#N)C2=O` returned a melting point of 117 to 118 °C.

As to `C=Cc1cc(CNC(=O)NCc2ccc(C(C)(C)C)cc2)cc(C(F)(F)F)c1NS(C)(=O)=O`, the melting point lay in the range of 134 to 136 °C.

For `CCN(CC)S(=O)(=O)c1cc2c(c(C(=O)NCc3ccccc3)c1)OCCO2`, the melting point worked out at 125 °C.

Compound `CCC(=O)Oc1ccc2c(=O)c(C(=O)CC)c(CC)oc2c1` returned a melting point of 84 °C.

The compound `CC(C)(C)OC(=O)Cc1ccc(CC(N=C(c2ccccc2)c2ccccc2)C(=O)OCc2ccccc2)cc1` (stereo not given) had a melting point of 139 to 141 °C.

`CN1CCN(c2ccc3c4c(cccc24)C(=O)N(O)C3=O)CC1` came in with a melting point of 326 to 329 °C.

Compound `N#Cc1ccccc1C(Cl)(Cl)Cl` registered a melting point of 98.9 to 100 °C.

As for `CCCCCCc1ccc(C(=O)O)cc1[N+](=O)[O-]`, the melting point lay within 106 to 108 °C.

On to `C[C@@H]1[C@@H](NS(=O)(=O)c2ccc(F)cc2)CN1C(c1ccc(Cl)cc1)c1ccc(Cl)cc1`, for which the melting point was in the range of 154 to 157 °C.

`COC(=O)C(C)(C)Oc1ccc(C(C)=O)cc1` yielded a melting point of 62 to 63 °C.

In the case of `CCN(CC)CCNC(=O)c1cc(Cl)c(N)cc1OCCC(C)OC` (stereo not given), the melting point lay in the range of 76 to 78 °C.

In turn, `COc1cc(Cc2cnc(N)nc2N)cc2c(C)cc(C)nc12` came in with a melting point of 289 to 290 °C.

Compound `O=C1c2ccccc2-c2c1c1ccccc1c(=O)n2CCCCCCNS(=O)(=O)c1ccccc1` yielded a melting point of 150 to 152 °C.

With `Cc1cc(-c2ccco2)ccc1-c1cc(C(F)(F)F)nn1-c1ccc(S(C)(=O)=O)c(F)c1`, the melting point fell in the range of 77 to 79 °C.

In turn, `Cc1ccc2c(c1)C(=O)C(C#N)C2=O` (stereo not given) showed a melting point of 176 to 178 °C.

The compound `S=C=Nc1c(Br)cccc1Br` yielded a melting point of 63 to 65 °C.

`CC(C)(C)OC(=O)N(Cc1ccc(C2CCCCC2)cc1)c1nc(Oc2ccc(F)cc2)c2ncn(CC(=O)O)c2n1` yielded a melting point of 119 to 133 °C.

`c1ccc(CSCC2CCn3c(nc4ccccc43)S2)cc1` (stereo not given) had a melting point of 97 to 99 °C.

Compound `CCOc1c(OC)cc(N)c2ncccc12` registered a melting point of 129 to 131 °C.

`CCCCCC1OCc2cc(C(=O)Oc3ccc(CCC)cc3)ccc2O1` (stereo not given) came in with a melting point of 97.5 °C.

Regarding `Cc1ccsc1C(Cc1ccccc1N)N(C)C=O` (stereo not given), the melting point is 111 to 112 °C.

Consider `COc1cc(C)ccc1Oc1ccc(Br)cc1O`, for which the melting point was 75 to 76 °C.

The compound `N#Cc1ccc(OC[C@H]2C[C@@H](O)CN2c2ccc(C#N)c3ccccc23)c2ccccc12` showed a melting point of 123 to 126 °C.

In turn, `CCc1cn(C2CC(O)C(CS(=O)(=O)Cc3ccccc3)O2)c(=O)[nH]c1=O` (stereo not given) displayed a melting point of 232 to 233 °C.

Turning to `Nc1cccc(Oc2ccc(C(c3ccc(Oc4cccc(N)c4)cc3)(C(F)(F)F)C(F)(F)F)cc2)c1`, the melting point lay within 137 to 139 °C.

For the compound `CC(=O)Nc1cc(C(C)(C)C)nn1C(=NOS(=O)(=O)c1ccc(C)cc1)C(C)CN1C(=O)c2ccccc2C1=O` (stereo not given), the melting point is 170 to 172 °C.

The compound `CC1(C)C=C(c2cccnc2)c2cc(C#N)ccc2OC1` had a melting point of 150 °C.

The compound `CC1(C)CC(=O)Nc2cc3nc(-c4ccc(CO)cc4)[nH]c3cc21` had a melting point of 214 to 232 °C.

On to `CC(C(=O)O)c1ccc2c(c1)C(=O)c1cc(Cl)ccc1CS2` (stereo not given), for which the melting point lay in the range of 128 to 131 °C.

As for `CNC(=O)C(=NOC)C1=C(COc2ccccc2C)CC(C)=C(C)C1`, the melting point lay in the range of 96 to 98 °C.

As to `NC(=O)N(O)Cc1ccc(OCc2coc(-c3ccc(C(F)(F)F)cc3)n2)cc1`, the melting point lay within 128 to 130 °C.

With `CCn1nnc2c(sc3nc(C)ccc32)c1=O`, the melting point was in the range of 165 to 167 °C.

For `COCC(C)Oc1ccc2c(c1)c(-c1cc3cccnc3[nH]1)cn2C` (stereo not given), the melting point is 150 to 151 °C.

For the compound `CC(C)=CCOc1ccc2c(=O)c3ccccc3oc2c1C(=O)C=Cc1ccccc1`, the melting point is 116 to 118 °C.

For `COC(=O)[C@@H]1C[C@H](NS(C)(=O)=O)C(=O)[C@H]2[C@@]1(C)CC[C@H]1C(=O)O[C@H](c3ccoc3)C[C@]21C`, the melting point is 262 to 265 °C.

The compound `CCN=c1[nH]c2ccccc2c2nc(-c3ccco3)nn12` showed a melting point of 133 to 135 °C.

In the case of `CN(C)C(=O)C1Cc2c(c(Cl)cc(F)c2N2C(=O)C3=C(CCCC3)C2=O)O1` (stereo not given), the melting point lay within 190 to 193 °C.

For `Cc1noc(-c2cccc(CN3C(=O)C4(COc5cc6c(cc54)OCCO6)c4ccccc43)c2)n1` (stereo not given), the melting point was 80 to 89 °C.

For `N#Cc1ccc(Cn2cncn2)cc1-c1ccc(Cl)c(OS(N)(=O)=O)c1`, the melting point lay within 148 to 150 °C.

The compound `CCOC(=O)CN1C(=O)C(N[C@H]2CCCCNC2=O)CCc2ccccc21` (stereo not given in full) showed a melting point of 148 to 150 °C.

With `Fc1cc(Br)ccc1-c1ccc(Cl)cc1Cl`, the melting point is 63 to 65 °C.

In turn, `Cc1cc(C)cc(Oc2[nH]c(=O)[nH]c(=O)c2C(C)C)c1` came in with a melting point of 91 to 92 °C.

Compound `COC(=O)C=C(N)CC(=O)OC` displayed a melting point of 47 to 50 °C.

For `CC(=O)c1cc(N=C=O)cc(C(C)=O)c1`, the melting point came to 71 °C.

As for `COC(=O)Cc1ccccc1NC(=S)NCN`, the melting point was 149 to 150 °C.

With `BrCc1ccc2nc(-c3ccccc3)c(-c3ccccc3)nc2c1`, the melting point lay in the range of 146 to 148 °C.

Turning to `CC(=O)OC1CC2=CCC3C4CCC(C(C)CS(=O)(=O)c5ccccc5)C4(C)CCC3C2(C)C(OC(C)=O)C1` (stereo not given), the melting point came out at 104 °C.

In the case of `CCN(c1ccc(C(C)=O)cc1)c1nc(=O)c2cccnc2s1`, the melting point was determined as 204 °C.

`CCCCCN(CCC12CC3CC(CC(C3)C1)C2)C(=O)NCCCCc1ccncc1` registered a melting point of 74.1 to 78.1 °C.

As for `Cc1c(C(=O)Nc2cccc(C#N)c2N2CCC(CN3CCOCC3)CC2)cnn1-c1ccc(Cl)cc1`, the melting point is 235 °C.

Take `CCCCC(CC)COc1cccc(N2C(C)=CC(=C=C3C(C#N)C(=C(C#N)C#N)OC3(C)C)C=C2C)c1` (stereo not given): the melting point worked out at 181 °C.

Compound `CNC(=O)Nc1snc(S(C)=O)c1C#N` (stereo not given) gave a melting point of 241 °C.

For the compound `CN1CCC(c2c(O)cc(O)c3c(=O)cc(Sc4ccccc4)oc23)C(O)C1` (stereo not given), the melting point was determined as 82 °C.

The compound `CCOC(=O)CC(=O)c1cc(F)c(O)nc1Nc1ccc(F)cc1F` had a melting point of 161 to 162 °C.

For the compound `CC(=O)NCCN1CCCc2ccccc21`, the melting point came to 102 °C.

As to `CNC(=O)Nc1ccc2c(c1)C(=O)NC(=O)C2(C)C`, the melting point lay within 257 to 258 °C.

Take `CCOC(=O)C(C=O)Cc1ccc(C)nc1` (stereo not given): the melting point was 142 to 144 °C.

Consider `CCOC(=O)C1=C(COCCO)Nc2ccnc(OC(C)C)c2C1c1ccccc1C(F)(F)F` (stereo not given), for which the melting point fell in the range of 109 to 112 °C.

For the compound `COC(=O)CN(NC(N)=O)c1cccc(C)c1`, the melting point lay within 68 to 70 °C.

`Cc1ccc(-c2nnc(N3CCC(C(N)=O)CC3)nc2-c2ccc(C)cc2)cc1`: the melting point was 222 to 224 °C.

For the compound `CC(C)(COC(=O)c1cc(Cl)c(O)c(Cl)c1)Cc1ccc(CC(C)(C)COC(=O)c2cc(Cl)c(O)c(Cl)c2)cc1`, the melting point was in the range of 203 to 204 °C.

In the case of `O=C(O)c1c(F)c(F)c(O)c(Cl)c1F`, the melting point lay in the range of 87 to 90 °C.

`COc1ccc(C(=O)c2[nH]c(=O)[nH]c2CN(C)C)cc1` displayed a melting point of 165 to 167 °C.

Consider `CCCCOc1cc(C(=O)NCC#N)cc(Cl)n1`, for which the melting point fell in the range of 72 to 73 °C.

On to `Nn1c2c(c3ccccc3c1=O)C(=O)c1ccccc1-2`, for which the melting point is 272 to 274 °C.

`COC(=O)c1nc(N)sc1-c1ccc(SC)cc1` gave a melting point of 184 to 185 °C.

On to `CN1CC(Cn2cncn2)CC2c3cccc4[nH]cc(c34)CC21` (stereo not given), for which the melting point is 245 to 253 °C.

`COc1cc2c(cc1C)CCN=C2C1(C2C=CCCC2)CCC1` (stereo not given) gave a melting point of 70 to 73 °C.

Regarding `COc1cc(N)c(Cl)cc1C(=O)NCC1CCN(CCCCCC(=O)c2cn(C)c3ccccc23)CC1`, the melting point is 125 to 127 °C.

Compound `CSCCC(S)C(=O)NC1(C(=O)NC(Cc2ccc(-c3ccsc3)nc2)C(=O)O)CCCC1` (stereo not given) registered a melting point of 170 to 172 °C.

On to `CC(C)(C)CCC(=N)NC(=S)Nc1ccc(Cl)cc1`, for which the melting point lay within 135 to 137 °C.

Compound `CCCCS(=O)(=O)NCc1ccc(C(=O)CN2CCN(c3ccncc3)CC2)cc1` displayed a melting point of 101 to 103 °C.

The compound `COc1cc(C=O)c(OC)c2c1C(C)(C)CCC2(C)C` gave a melting point of 55 to 57 °C.

`NS(=O)(=O)c1ccccc1-c1cnoc1` yielded a melting point of 165 to 167 °C.

Regarding `O=P1(O)Oc2ccccc2-c2cc(C(F)(F)F)ccc21`, the melting point came to 240 °C.

On to `CC1(C)NC(=O)N(Cc2ccccc2)C1=O`, for which the melting point was 101 to 104 °C.
